Data: ChEMBL document CHEMBL1122133, “(+/-)-cis-2-acetoxycyclobutyltrimethylammonium iodide: a semirigid analogue of acetylcholine” (1982)

Species: Cavia porcellus
Experiment: Evaluated for muscarinic activity using guinea pig ilea
Assay type: functional

CC(=O)O[C@H]1CC[C@H]1[N+](C)(C)C.[I-]
ID50: 83 nM

CC(=O)O[C@@H]1CC[C@H]1[N+](C)(C)C.[I-]
ID50: 68 nM
